{
  "source": "ChEMBL document CHEMBL3351789",
  "about": "“Triazolopyridines as selective JAK1 inhibitors: from hit identification to GLPG0634” (J Med Chem, 2014)",
  "key": {"[1]": {"test": "Metabolic stability in rat liver microsomes assessed as compound remaining after 60 mins", "assay_type": "ADME", "conditions": "read-out: Stability"}, "Rattus norvegicus [2]": {"test_system": "Rattus norvegicus", "test": "Antiinflammatory activity in po dosed rat collagen-induced arthritis model assessed as reduction in clinical score measured up to day 15", "assay_type": "functional, organism-based"}, "[3]": {"test": "Cmax in dog at 1 mg/kg, iv", "assay_type": "ADME, organism-based, Canis lupus familiaris", "design": "dose 1 mg/kg, route intravenous", "conditions": "in vivo"}, "Rattus norvegicus [4]": {"test_system": "Rattus norvegicus", "test": "Antiinflammatory activity in rat collagen-induced arthritis model assessed as reduction in clinical score at 0.1 mg/kg, po measured up to day 15", "assay_type": "functional, organism-based", "design": "dose 0.1 mg/kg"}, "Rattus norvegicus [5]": {"test_system": "Rattus norvegicus", "test": "Antiinflammatory activity in rat collagen-induced arthritis model assessed as reduction in clinical score at 0.3 mg/kg, po measured up to day 15", "assay_type": "functional, organism-based", "design": "dose 0.3 mg/kg"}, "[6]": {"test": "AUC (0 to infinity) in rat at 1 mg/kg, iv", "assay_type": "ADME, organism-based", "design": "time infinity, dose 1 mg/kg, route intravenous", "conditions": "plasma"}, "[7]": {"test": "Half life in dog hepatocytes", "assay_type": "ADME, cell-based, Canis lupus familiaris, Hepatocyte"}, "[8]": {"test": "Metabolic stability in human liver microsomes assessed as compound remaining after 60 mins", "assay_type": "ADME", "conditions": "read-out: Stability"}, "[9]": {"test": "Tmax in rat at 5 mg/kg, po", "assay_type": "ADME, organism-based", "design": "dose 5 mg/kg, route oral", "conditions": "in vivo"}, "[10]": {"test": "Thermodynamic solubility in aqueous buffer solution at pH 3", "assay_type": "physicochemical"}, "[11]": {"test": "Half life in human hepatocytes", "assay_type": "ADME, cell-based, Hepatocyte"}, "Jak1 protein": {"molecular_target": "Jak1 protein (Rattus norvegicus, UniProt Q5FVF5)", "sequence (Q5FVF5 whole entry)": "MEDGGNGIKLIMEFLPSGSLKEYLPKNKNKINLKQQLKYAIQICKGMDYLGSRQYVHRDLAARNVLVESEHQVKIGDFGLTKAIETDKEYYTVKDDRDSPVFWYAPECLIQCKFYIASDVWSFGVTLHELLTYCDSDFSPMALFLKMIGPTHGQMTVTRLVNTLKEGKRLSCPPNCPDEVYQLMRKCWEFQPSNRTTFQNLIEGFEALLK", "test": "Inhibition of rat JAK1"}, "[12]": {"test": "Clearance in dog at 1 mg/kg, iv", "assay_type": "ADME, organism-based, Canis lupus familiaris", "design": "dose 1 mg/kg, route intravenous", "conditions": "in vivo"}, "[13]": {"test": "Kinetic solubility of the compound at pH 7.4", "conditions": "buffer"}, "[14]": {"test": "Plasma protein binding in human", "assay_type": "ADME, cell-free", "conditions": "read-out: PPB (converted)"}, "[15]": {"test": "Plasma protein binding in rat"}, "[16]": {"test": "Tmax in dog at 5 mg/kg, po", "assay_type": "ADME, organism-based, Canis lupus familiaris", "design": "dose 5 mg/kg, route oral", "conditions": "in vivo"}, "[17]": {"test": "AUC (0 to infinity) in rat at 5 mg/kg, po", "assay_type": "ADME, organism-based", "design": "time infinity, dose 5 mg/kg, route oral", "conditions": "plasma"}, "Cytochrome P450 2D6": {"molecular_target": "Cytochrome P450 2D6 (Homo sapiens, UniProt P10635)", "sequence (P10635 whole entry)": "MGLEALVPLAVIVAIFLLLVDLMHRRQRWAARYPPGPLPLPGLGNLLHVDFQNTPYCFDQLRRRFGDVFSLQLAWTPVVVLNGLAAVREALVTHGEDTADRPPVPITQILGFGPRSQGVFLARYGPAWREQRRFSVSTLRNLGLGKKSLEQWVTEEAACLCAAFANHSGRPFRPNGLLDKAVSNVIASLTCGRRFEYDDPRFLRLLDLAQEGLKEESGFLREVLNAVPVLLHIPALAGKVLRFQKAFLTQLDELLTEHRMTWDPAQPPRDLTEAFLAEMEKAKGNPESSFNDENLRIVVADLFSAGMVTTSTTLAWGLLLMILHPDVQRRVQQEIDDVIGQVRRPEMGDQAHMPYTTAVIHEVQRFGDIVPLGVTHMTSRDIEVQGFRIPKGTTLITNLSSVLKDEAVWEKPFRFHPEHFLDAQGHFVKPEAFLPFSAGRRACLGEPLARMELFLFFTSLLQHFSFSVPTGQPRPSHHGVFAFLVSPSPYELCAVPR", "test": "Inhibition of CYP2D6 (unknown origin)", "assay_type": "ADME"}, "[18]": {"test": "Half life in rat at 1 mg/kg, iv", "assay_type": "ADME, organism-based", "design": "dose 1 mg/kg, route intravenous", "conditions": "in vivo"}, "[19]": {"test": "Cmax in rat at 5 mg/kg, po", "assay_type": "ADME, organism-based", "design": "dose 5 mg/kg, route oral", "conditions": "in vivo"}, "[20]": {"test": "Plasma protein binding in dog", "assay_type": "ADME, cell-free, Canis lupus familiaris", "conditions": "read-out: PPB (converted)"}, "[21]": {"test": "Oral bioavailability in dog at 1 mg/kg, iv and 5 mg/kg", "assay_type": "ADME, organism-based, Canis lupus familiaris", "conditions": "in vivo"}, "Cytochrome P450 2C9": {"molecular_target": "Cytochrome P450 2C9 (Homo sapiens, UniProt P11712)", "sequence (P11712 whole entry)": "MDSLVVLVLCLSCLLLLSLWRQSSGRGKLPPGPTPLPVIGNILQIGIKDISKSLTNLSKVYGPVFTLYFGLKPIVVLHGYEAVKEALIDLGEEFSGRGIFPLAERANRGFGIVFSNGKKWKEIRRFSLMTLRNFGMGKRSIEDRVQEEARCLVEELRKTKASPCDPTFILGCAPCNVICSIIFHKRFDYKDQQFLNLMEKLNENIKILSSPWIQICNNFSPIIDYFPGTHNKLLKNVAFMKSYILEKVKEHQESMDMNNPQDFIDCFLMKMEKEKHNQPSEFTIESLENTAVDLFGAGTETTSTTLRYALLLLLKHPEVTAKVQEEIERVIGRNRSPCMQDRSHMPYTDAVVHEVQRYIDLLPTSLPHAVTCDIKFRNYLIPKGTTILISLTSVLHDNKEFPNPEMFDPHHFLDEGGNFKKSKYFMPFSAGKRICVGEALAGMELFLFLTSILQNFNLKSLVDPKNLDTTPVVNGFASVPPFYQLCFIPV", "test": "Inhibition of CYP2C9 (unknown origin)", "assay_type": "ADME"}, "[22]": {"test": "Half life in rat at 5 mg/kg, po", "assay_type": "ADME, organism-based", "design": "dose 5 mg/kg, route oral", "conditions": "in vivo"}, "[23]": {"test": "Metabolic stability in dog liver microsomes assessed as compound remaining after 60 mins", "assay_type": "ADME, Canis lupus familiaris", "conditions": "read-out: Stability"}, "[24]": {"test": "Volume of distribution at steady state in dog at 1 mg/kg, iv", "assay_type": "ADME, organism-based, Canis lupus familiaris", "design": "dose 1 mg/kg, route intravenous", "conditions": "in vivo, read-out: Vdss"}, "[25]": {"test": "AUC (0 to infinity) in dog at 1 mg/kg, iv", "assay_type": "ADME, organism-based, Canis lupus familiaris", "design": "time infinity, dose 1 mg/kg, route intravenous", "conditions": "plasma"}, "[26]": {"test": "Half life in dog at 1 mg/kg, iv", "assay_type": "ADME, organism-based, Canis lupus familiaris", "design": "dose 1 mg/kg, route intravenous", "conditions": "in vivo"}, "[27]": {"test": "Cmax in dog at 5 mg/kg, po", "assay_type": "ADME, organism-based, Canis lupus familiaris", "design": "dose 5 mg/kg, route oral", "conditions": "in vivo"}, "Cytochrome P450 1A2": {"molecular_target": "Cytochrome P450 1A2 (Homo sapiens, UniProt P05177)", "sequence (P05177 whole entry)": "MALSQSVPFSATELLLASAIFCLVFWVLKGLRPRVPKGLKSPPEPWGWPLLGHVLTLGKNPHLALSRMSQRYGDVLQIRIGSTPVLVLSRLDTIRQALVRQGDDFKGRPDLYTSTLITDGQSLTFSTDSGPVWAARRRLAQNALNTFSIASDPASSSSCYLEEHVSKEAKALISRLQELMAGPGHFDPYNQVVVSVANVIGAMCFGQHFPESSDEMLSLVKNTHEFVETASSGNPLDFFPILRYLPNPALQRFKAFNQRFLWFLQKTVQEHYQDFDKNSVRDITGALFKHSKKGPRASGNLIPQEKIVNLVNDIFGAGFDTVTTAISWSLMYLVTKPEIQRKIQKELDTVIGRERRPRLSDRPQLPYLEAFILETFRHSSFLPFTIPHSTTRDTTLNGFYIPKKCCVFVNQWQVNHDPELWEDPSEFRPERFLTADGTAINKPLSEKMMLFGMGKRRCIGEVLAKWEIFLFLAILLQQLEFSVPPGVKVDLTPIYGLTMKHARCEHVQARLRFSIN", "test": "Inhibition of CYP1A2 (unknown origin)", "assay_type": "ADME"}, "[28]": {"test": "Thermodynamic solubility in aqueous buffer solution at pH 7.4", "assay_type": "physicochemical"}, "[29]": {"test": "AUC (0 to infinity) in dog at 5 mg/kg, po", "assay_type": "ADME, organism-based, Canis lupus familiaris", "design": "dose 5 mg/kg, route oral, time infinity", "conditions": "plasma"}, "Cytochrome P450 2C19": {"molecular_target": "Cytochrome P450 2C19 (Homo sapiens, UniProt P33261)", "sequence (P33261 whole entry)": "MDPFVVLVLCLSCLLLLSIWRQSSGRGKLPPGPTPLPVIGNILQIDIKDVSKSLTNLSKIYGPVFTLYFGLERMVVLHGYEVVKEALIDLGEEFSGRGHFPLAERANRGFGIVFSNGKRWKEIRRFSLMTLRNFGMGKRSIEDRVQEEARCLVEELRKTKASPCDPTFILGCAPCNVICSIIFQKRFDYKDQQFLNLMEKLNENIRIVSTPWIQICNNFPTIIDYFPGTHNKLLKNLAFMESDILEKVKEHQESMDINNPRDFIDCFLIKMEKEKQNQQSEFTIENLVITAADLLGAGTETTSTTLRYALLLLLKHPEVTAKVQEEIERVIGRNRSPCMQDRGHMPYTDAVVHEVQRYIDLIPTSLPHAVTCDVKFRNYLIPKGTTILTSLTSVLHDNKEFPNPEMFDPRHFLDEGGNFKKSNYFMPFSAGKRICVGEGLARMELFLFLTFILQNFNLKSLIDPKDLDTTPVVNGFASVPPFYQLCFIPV", "test": "Inhibition of CYP2C19 (unknown origin)", "assay_type": "ADME"}, "[30]": {"test": "Half life in rat hepatocytes", "assay_type": "ADME, cell-based, Hepatocyte"}, "[31]": {"test": "Permeability across apical to basolateral side in human Caco2 cells", "assay_type": "ADME, cell-based", "conditions": "caco-2"}, "[32]": {"test": "Half life in dog at 5 mg/kg, po", "assay_type": "ADME, organism-based, Canis lupus familiaris", "design": "dose 5 mg/kg, route oral", "conditions": "in vivo"}},
  "note": "Calls of active or inactive are those of the source. The rule behind the calls is not given here.",
  "data": [
    {"smiles": "O=C(Nc1nc2cccc(-c3ccc(CN4CCS(=O)(=O)CC4)cc3)n2n1)C1CC1", "note": "[FILGOTINIB]", "values": [
      {"measurement": "remaining at 1 h", "setting": "[1]", "value": 65, "unit": "%"},
      {"measurement": "inhibition", "setting": "Rattus norvegicus [2]", "value": "Dose-dependent effect"},
      {"measurement": "Cmax", "setting": "[3]", "value": 1140, "unit": "ng/mL"},
      {"measurement": "inhibition", "setting": "Rattus norvegicus [4]", "value": "Active"},
      {"measurement": "inhibition", "setting": "Rattus norvegicus [5]", "value": "Active"},
      {"measurement": "AUC(0-inf)", "setting": "[6]", "value": 739, "unit": "ng·h/mL"},
      {"measurement": "half-life", "setting": "[7]", "value": 3.33, "unit": "h"},
      {"measurement": "remaining at 1 h", "setting": "[8]", "value": 87, "unit": "%"},
      {"measurement": "Tmax", "setting": "[9]", "value": 2.2, "unit": "h"},
      {"measurement": "Therm solubility", "setting": "[10]", "value": 243, "unit": "µg/mL"},
      {"measurement": "half-life", "setting": "[11]", "value": 3.33, "unit": "h"},
      {"measurement": "IC50", "setting": "Jak1 protein", "value": 0.029, "unit": "µM"},
      {"measurement": "clearance", "setting": "[12]", "value": 4.17, "unit": "mL/min/kg"},
      {"measurement": "solubility kinetic", "setting": "[13]", "value": "> 85", "unit": "µg/mL"},
      {"measurement": "fraction unbound", "setting": "[14]", "value": 0.682},
      {"measurement": "fraction unbound", "setting": "[15]", "value": 0.525},
      {"measurement": "Tmax", "setting": "[16]", "value": 1.5, "unit": "h"},
      {"measurement": "AUC(0-inf)", "setting": "[17]", "value": 1680, "unit": "ng·h/mL"},
      {"measurement": "IC50", "setting": "Cytochrome P450 2D6", "value": "> 70", "unit": "µM"},
      {"measurement": "half-life", "setting": "[18]", "value": 1.6, "unit": "h"},
      {"measurement": "Cmax", "setting": "[19]", "value": 310, "unit": "ng/mL"},
      {"measurement": "fraction unbound", "setting": "[20]", "value": 0.711},
      {"measurement": "bioavailability", "setting": "[21]", "value": 67, "unit": "%"},
      {"measurement": "IC50", "setting": "Cytochrome P450 2C9", "value": "> 70", "unit": "µM"},
      {"measurement": "half-life", "setting": "[22]", "value": 3.9, "unit": "h"},
      {"measurement": "remaining at 1 h", "setting": "[23]", "value": 45, "unit": "%"},
      {"measurement": "Vd", "setting": "[24]", "value": 1.7, "unit": "L/kg"},
      {"measurement": "AUC(0-inf)", "setting": "[25]", "value": 4100, "unit": "ng·h/mL"},
      {"measurement": "half-life", "setting": "[26]", "value": 7.5, "unit": "h"},
      {"measurement": "Cmax", "setting": "[27]", "value": 1810, "unit": "ng/mL"},
      {"measurement": "IC50", "setting": "Cytochrome P450 1A2", "value": "> 70", "unit": "µM"},
      {"measurement": "Therm solubility", "setting": "[28]", "value": 40, "unit": "µg/mL"},
      {"measurement": "AUC(0-inf)", "setting": "[29]", "value": 13900, "unit": "ng·h/mL"},
      {"measurement": "IC50", "setting": "Cytochrome P450 2C19", "value": "> 70", "unit": "µM"},
      {"measurement": "half-life", "setting": "[30]", "value": 3.33, "unit": "h"},
      {"measurement": "permeability", "setting": "[31]", "value": 3.5, "unit": "×10⁻⁶ cm/s"},
      {"measurement": "half-life", "setting": "[32]", "value": 5.2, "unit": "h"}
    ]}
  ]
}
